Reference: patent publication US20230286973A1, “PROTEIN SECRETION INHIBITORS” (KEZAR LIFE SCIENCES, priority 2020, published 2023)
Like-named read-outs stand apart in the source and are kept apart here.

What was measured:
[1] = Liver Microsome Stability Assay (rat); details: rat liver microsomes, with NADPH, 1.0 uM compound
Protocol: (§1) Stability of a compound was assessed in the presence of liver microsomes from various sources—mouse, rat, monkey and human liver microsomes. 1.0 uM compound, 0.4% DMSO in 0.1 M Potassium Phosphate with 1.0 mg/mL liver microsomes, were incubated at 37° C. with or without 1 mM NADPH. The samples were quenched at 0, and 30 minutes.

[2] = test system: PD1-ss+10aa/Gaussia Luciferase; experiment: Dox-Induced PD1-ss-Gluc Assay; assay type: cell-based; details: 24 hr Dox induction, 293FRT/TO cells, read-out: 24 hr Dox Inducible PD1ssGluc 293FRT/TO: Mean IC50
How it was run: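 The cell line was made by transfecting Flp-In 293 T-REx cells with a PD1 signal sequence+10aa–Gaussia luciferase fusion under T-REx control and selecting with hygromycin and blasticidin. Cells were seeded, and next day compound plus doxycycline was added at 37 °C, 5% CO2.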

[3] = test system: IL-2-FL/Gaussia Luciferase; experiment: Dox Induced IL2-FL-Gluc Assay; assay type: cell-based; details: for IC50: 24 hr Dox induction, 293FRT/TO cells, read-out: 24 hr Dox Inducible IL2FLGluc 293FRT/TO: Mean IC50; for 24 hr Dox Inducible IL2FLGluc 293FRT/TO: IL2/PD1: ratio of IL2FLGluc IC50 to PD1ssGluc IC50
How it was run: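 Stable Flp-In 293 T-REx cells carrying doxycycline-inducible full-length IL-2 (aa 1-153) fused to Gaussia luciferase, plated the day before assay. Compound dilutions added in medium containing doxycycline, incubated at 37 °C, 5% CO2. Undefined stereocentres mean data refer to stereoisomer mixtures.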

[4] = test system: TNFα-FL/Gaussia Luciferase; experiment: Dox Induced TNFα-FL-Gluc Assay; assay type: cell-based; details: for IC50: 24 hr Dox induction, 293FRT/TO cells, read-out: 24 hr Dox Inducible TNFaFLGluc 293FRT/TO: Mean IC50; for 24 hr Dox Inducible TNFaFLGluc 293FRT/TO: TNF/PD1: ratio of TNFaFLGluc IC50 to PD1ssGluc IC50
How it was run: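 Flp-In 293 T-REx cells stably carrying doxycycline-inducible full-length TNFα (aa 1-233) fused to Gaussia luciferase. Plated the day before, then treated with compound dilutions in doxycycline-containing medium at 37° C, 5% CO2.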

[5] = test system: HER3-ss+4aa/Gaussia Luciferase; experiment: Dox-Induced Her3-ss-Gluc Assay; assay type: cell-based; details: 24 hr Dox induction, 293FRT/TO cells, read-out: 24 hr Dox Inducible Her3(ss + 4)Gluc 293FRT/TO: Mean IC50
How it was run: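 Stable Flp-In 293 T-REx cells carried a doxycycline-inducible HER3 signal sequence (+4 aa) fused to Gaussia luciferase. Cells were plated the day before the assay. Compound dilutions in DMSO/media containing doxycycline were then added, and plates were incubated at 37 °C, 5% CO2.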

[6] = test system: multiple myeloma cell line NCI-H929; experiment: H929 Cell Viability Assay; assay type: cell-based, human; details: Homo sapiens, NCI-H929, 48 h, NCI-H929 cells, Celltiter-Glo
How it was run: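 NCI-H929 cells in RPMI 1640 with 10% FBS were treated with compound dilutions for 48 h at 37° C, 5% CO2. Viability was read by CellTiter-Glo luminescence. Undefined stereocentres denote stereoisomer mixtures.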

[7] = Liver Microsome Stability Assay (monkey); details: monkey liver microsomes, with NADPH, 1.0 uM compound
Protocol: as §1

[8] = test system: multiple myeloma cell line U266B1; experiment: U266 Cell Viability Assay; assay type: cell-based, human; details: Homo sapiens, U-266, 48 h, U266B1 cells, Celltiter-Glo
How it was run: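 U266B1 multiple myeloma cells in RPMI 1640/10% FBS were treated with compound dilutions for 48 h at 37 °C, 5% CO2. Viability was measured by CellTiter-Glo luminescence; compounds drawn without stereochemistry were tested as stereoisomer mixtures.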

[9] = Liver Microsome Stability Assay (mouse); details: mouse liver microsomes, with NADPH, 1.0 uM compound
Protocol: as §1

[10] = Liver Microsome Stability Assay (human); details: human liver microsomes, with NADPH, 1.0 uM compound
Protocol: as §1

[11] = '<=>' given where both are I.A.

Row | SMILES | Liver Microsome Stability (Multiple Species): Rat - % Remaining after 30 min w/NADPH [1] | IC50 [2] | IC50 [3] | 24 hr Dox Inducible IL2FLGluc 293FRT/TO: IL2/PD1 [3] | IC50 [4] | 24 hr Dox Inducible TNFaFLGluc 293FRT/TO: TNF/PD1 [4] | IC50 [5] | EC50 [6] | Liver Microsome Stability (Multiple Species): Monkey - % Remaining after 30 min w/NADPH [7] | EC50 [8] | Liver Microsome Stability (Multiple Species): Mouse - % Remaining after 30 min w/NADPH [9] | Liver Microsome Stability (Multiple Species): Human - % Remaining after 30 min w/NADPH [10] | IC50 ([2]; mean) | IC50 ([3]; mean) | 24 hr Dox Inducible IL2FLGluc 293FRT/TO: IL2/PD1 [3, 11] | IC50 ([4]; mean) | 24 hr Dox Inducible TNFaFLGluc 293FRT/TO: TNF/PD1 [4, 11] | IC50 ([5]; mean)
1 | O=C(Nc1nc([C@H]2CCCN2c2ccc(CCO)cc2)cs1)c1cccn1Cc1ccnc(F)c1 [Compound A78, (R)-1-((2-fluoropyridin-4-yl)methyl)-N-(4-(1-(4-(2-hydroxyethyl)phenyl)pyrrolidin-2-yl)thiazol-2-yl)-1H-pyrrole-2-carboxamide] | 3.42% | 0.0132 µM | 0.0301 µM | 2.3 | 0.159 µM | 12 | 0.0277 µM | 0.495 µM | 3.13% | > 25 µM | 6.09% | 6.01% | – | – | – | – | – | –
2 | O=C(Nc1nc([C@H]2C[C@@H](OCCO)CN2c2ccccc2)cs1)c1cccn1Cc1ccncc1 [Compound E32] | 0.79% | – | – | – | – | – | – | 24.9 µM | 0.09% | > 25 µM | 3.3% | 0.21% | 1.02 µM | 3.94 µM | 3.9 | 7.08 µM | 6.91 | 3.06 µM
3 | O=C(Nc1nc(CCc2ccccn2)cs1)c1cccn1Cc1ccncc1 [Compound E8, N-(4-(2-(pyridin-2-yl)ethyl)thiazol-2-yl)-1-(pyridin-4-ylmethyl)-1H-pyrrole-2-carboxamide] | 2.86% | – | – | – | – | – | – | > 25 µM | 0.02% | > 25 µM | 0.6% | 0.01% | 0.695 µM | 5.05 µM | 7.3 | > 25 µM | >35.9 | 4.96 µM
4 | NC(=O)Cn1cnc(/C=C/c2csc(NC(=O)c3cccn3Cc3ccnc(F)c3)n2)c1 [Compound B115] | 30% | > 25 µM | > 25 µM | <=>1.0 | > 25 µM | <=>1.00 | > 25 µM | > 25 µM | 11.5% | > 25 µM | 70.7% | 12.8% | – | – | – | – | – | –
5 | COc1cc(N2CCC[C@@H]2c2csc(NC(=O)c3cccn3Cc3ccnc(F)c3)n2)ccc1OC1CCN(C(C)=O)CC1 [Compound A129, (R)-N-(4-(1-(4-((1-acetylpiperidin-4-yl)oxy)-3-methoxyphenyl)pyrrolidin-2-yl)thiazol-2-yl)-1-((2-fluoropyridin-4-yl)methyl)-1H-pyrrole-2-carboxamide] | 0.45% | 0.00958 µM | 0.0212 µM | 2.2 | 0.303 µM | 31.6 | 0.0155 µM | 0.398 µM | 8.34% | > 25 µM | 6.21% | 15.7% | – | – | – | – | – | –
6 | O=C1CCCC(/C=C/c2csc(NC(=O)c3cccn3Cc3ccncc3)n2)N1 (centres unmarked) [Compound B13, (E)-N-(4-(2-(6-oxopiperidin-2-yl)vinyl)thiazol-2-yl)-1-(pyridin-4-ylmethyl)-1H-pyrrole-2-carboxamide] | 6.37% | > 25 µM | > 25 µM | 1 | > 25 µM | <=>1.00 | > 25 µM | > 25 µM | 0.6% | > 25 µM | 4.96% | 0.48% | – | – | – | – | – | –
7 | CN(C)c1cccc(-c2csc(NC(=O)c3cccn3Cc3ccncc3)n2)c1 [Compound A76, N-(4-(3-(dimethylamino)phenyl)thiazol-2-yl)-1-(pyridin-4-ylmethyl)-1H-pyrrole-2-carboxamide] | 4.99% | 0.292 µM | 1.51 µM | 5.2 | 6.66 µM | 22.9 | 0.83 µM | 22.4 µM | 1.43% | > 25 µM | 11% | 2.44% | – | – | – | – | – | –
8 | N#CCC1(Cn2cccc2C(=O)Nc2nc([C@H]3CCCN3c3ccccc3)cs2)CCC1 [Compound C9, (R)-1-((1-(cyanomethyl)cyclobutyl)methyl)-N-(4-(1-phenylpyrrolidin-2-yl)thiazol-2-yl)-1H-pyrrole-2-carboxamide] | 8.24% | – | – | – | – | – | – | > 25 µM | 0.38% | > 25 µM | 0.81% | 3.68% | 4.56 µM | 7.54 µM | 1.7 | > 25 µM | >5.49 | 6.1 µM
9 | O=C(Nc1nc(/C=C/[C@@H]2CCCCN2)cs1)c1cccn1Cc1ccncc1 [Compound E18, (S,E)-N-(4-(2-(piperidin-2-yl)vinyl)thiazol-2-yl)-1-(pyridin-4-ylmethyl)-1H-pyrrole-2-carboxamide] | 19.4% | – | – | – | – | – | – | > 25 µM | 0.27% | > 25 µM | 33.5% | 0.2% | > 5 µM | > 5 µM | 1 | > 5 µM | – | > 5 µM
